pIC50: −log10 of the molar value. Where a name gives a salt, the structure may show the parent alone.
Experiments:
[1] = test system: Ishikawa human endometrial tumor cells; assay: Ishikawa Cell Proliferation Assay, antagonist mode (block of estradiol stimulation); type: cell-based
Protocol: Ishikawa Cell Proliferation Assay: This assay measures cell proliferation (using an alkaline phosphatase readout) in both an agonist mode in the presence of a compound of the present invention alone, and in an antagonist mode in which the ability of a compound of the present invention to block estradiol stimulation of growth is measured.
Ishikawa human endometrial tumor cells are maintained in MEM (minimum essential medium, with Earle's salts and L-Glutamine, Gibco BRL, Gaithersburg, Md.), supplemented with 10% fetal bovine serum (FBS) (V/V), (Gibco BRL). […]
For the agonist mode, plates receive 25 μl/well of assay medium followed by 25 μl/well of a diluted compound of the present invention (at 6× the final concentrations). […] After a 20-minute incubation, plates are read on a spectophotometer at 405 nm.
The data is fitted to a linear interpolation to derive EC50 (for agonist mode) or IC50 (for antagonist mode) values. For the antagonist mode, a % efficacy for each compound is calculated versus E2 (1 nM) alone. For the agonist mode, a % efficacy for each compound is calculated versus the response to tamoxifen.

[2] = test system: Ishikawa human endometrial tumor cells; assay: Ishikawa Cell Proliferation Assay, agonist mode (alkaline phosphatase readout); type: cell-based; conditions: versus the response to tamoxifen, read-out: relative % efficacy
[3] = test system: immature (3 week old) female rats; assay: 3-Day Rat Uterus Antagonist Assay; type: in vivo; conditions: oral, 3 days, with E2 0.1 mg/kg
From the text: 3-Day Rat Uterus Antagonist Assay: This model for uterine antagonism utilizes immature (3 week old) female rats that are highly sensitive to estrogenic stimulation of the uterus given that their circulating estrogen levels are prepubertal. The uteri from immature rats are fully responsive to exogenous estrogen, yet are quiescent in the absence of exogenous estrogen. Administration of exogenous estrogen to immature rats produces a reliable elevation of uterine weight, which can be used to study uterine antagonist effects.
Test compounds are dissolved in 20% β-hydroxycyclodextrin and administered by oral gavage in a volume of 0.2 mL daily (15 min. prior to the ethynyl estradiol gavage). A vehicle control, E2 alone and E2+raloxifene are also done as controls. The animals are fasted overnight following the final dose. […]
Uterine weight/body weight ratios (UWR) are calculated for each animal. The percent inhibition of the estrogen-induced response is then calculated by the following formula: percent inhibition=100×(UWRestrogen−UWRtest compound/UWRestrogen−UWRcontrol). […] Both the UWR data and the percent inhibition data were statistically analyzed by one way analysis of variance (ANOVA) with post-hoc testing by Fisher's PLSD when indicated by a p≦0.05. […]

[4] = test system: mature, ovariectomized rats; assay: 4-Day OVX Rat Uterine Agonist Assay; type: in vivo; conditions: 4 days of treatment, 3 doses
Protocol: Cholesterol levels are also measured to compare relative ability to lower cholesterol with other SERMs. If there is any question of uterine stimulation, histological examination will determine epithelial cell height.

`CS(=O)(=O)c1cccc(-c2ccc3cc(O)ccc3c2Oc2ccc(OCCN3CCCCC3)cc2)c1` [Example 16, 6-(3-Methanesulfonyl-phenyl)-5-[4-(2-piperidin-1-yl-ethoxy)-phenoxy]-naphthalen-2-ol Hydrochloride] showed a pIC50 ([1]; 1 nM E2) of 7.45 and an Emax ([1]; versus E2 (1 nM) alone, read-out: % efficacy (inhibition of the 1 nM estradiol response)) of 107%.
Compound `CCS(=O)(=O)c1cc(-c2ccc3cc(O)ccc3c2Oc2ccc(OCCN3CCCCC3)cc2)cc(S(=O)(=O)CC)c1` [Example 56, 6-(3,5-Bis-ethanesulfonyl-phenyl)-5-[4-(2-piperidin-1-yl-ethoxy)-phenoxy]-naphthalen-2-ol Hydrochloride] has an Emax [2] of 71.8%.
In the case of `CS(=O)(=O)c1ccc(-c2sc3cc(O)ccc3c2Oc2ccc(OCCN3CCCCC3)cc2)cc1.Cl` [Example 92, 2-(4-Methanesulfonyl-phenyl)-3-[4-(2-piperidin-1-yl-ethoxy)-phenoxy]-benzo[b]thiophen-6-ol Hydrochloride], the “% antagonism” value [3] was 62.7% and the ED50 [3] was 0.53 mpk.
For `CCS(=O)(=O)c1ccc(-c2ccc3cc(O)ccc3c2Oc2ccc(OCCN3CCCCC3)cc2)cc1.Cl` [Example 14, 6-(4-Ethanesulfonyl-phenyl)-5-[4-(2-piperidin-1-yl-ethoxy)-phenoxy]-naphthalen-2-ol Hydrochloride], the “uterine eosinophil peroxidase (EPO) activity” value [4] was “did not cause dose-related statistically significant increases”.

Source: US7585977B2, “Selective estrogen receptor modulators containing a phenylsulfonyl group” (Eli Lilly and Company, priority 2005, dated 2009)
